Assay results from patent US9365522B2, “Pyrazole amide derivative” (AMGEN INC., priority 2015, dated 2016).

Target: T1, human RORγ-LBD (Homo sapiens, UniProt P51449)
T1 construct: made in house; host or cells: E. coli (BL-21)
T1 sequence (P51449 262-518): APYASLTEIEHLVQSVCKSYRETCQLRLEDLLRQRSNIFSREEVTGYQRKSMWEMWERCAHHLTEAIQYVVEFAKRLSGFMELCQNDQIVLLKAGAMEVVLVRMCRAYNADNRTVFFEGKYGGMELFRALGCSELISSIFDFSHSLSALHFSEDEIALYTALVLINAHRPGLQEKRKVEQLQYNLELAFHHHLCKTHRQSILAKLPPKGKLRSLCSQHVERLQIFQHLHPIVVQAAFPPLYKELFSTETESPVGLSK
Experiment: ROR gamma coactivator peptide recruitment Alphascreen assay (RORγ-LBD binding to GRIP1 coactivator peptide)
Assay type: biochemical
Conditions: 5 nM human RORγ-LBD, 30 nM 7-β-hydroxycholesterol, 50 nM biotinylated GRIP1 coactivator peptide, overnight incubation at room temperature; read-out: result (pIC50, RORγ coactivator peptide recruitment Alphascreen assay) (converted)
Outline: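 Alphascreen proximity read-out after overnight room-temperature incubation, yielding pIC50 from 1-in-2 compound series (2.5% DMSO final). Mixture: 50 nM biotin-GRIP1 peptide, 30 nM 7-β-hydroxycholesterol agonist, 5 nM recombinant 6×His:Flag human RORγ-LBD (aa 262-518), 50 mM HEPES pH 7.4.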

| IC50 | Compound |
| --- | --- |
| 9.33 nM | Cc1cc(Cl)c(C(=O)CN(CC2(F)CCCC2)C(=O)c2cnn([C@H]3CC[C@](C)(C(=O)O)CC3)c2C(F)(F)F)c(Cl)n1 [Example 751, trans-4-(4-((2-(2,4-dichloro-6-methyl-3-pyridinyl)-2-oxoethyl)((1-fluorocyclopentyl)methyl)carbamoyl)-5-(trifluoromethyl)-1H-pyrazol-1-yl)-1-methylcyclohexanecarboxylic acid] |
| 63.1 nM | CC(C)CCN(CC(=O)c1c(Cl)cncc1Cl)C(=O)c1cnn([C@H]2CC[C@H](C(=O)O)[C@H](C)C2)c1C(F)(F)F [Example 803, (1S,2R,4S)-4-(4-((2-(3,5-dichloro-4-pyridinyl)-2-oxoethyl)(3-methylbutyl)carbamoyl)-5-(trifluoromethyl)-1H-pyrazol-1-yl)-2-methylcyclohexanecarboxylic acid] |
| 2.69 nM | C[C@@H]1C[C@@H](n2ncc(C(=O)N(CC(=O)c3c(Cl)cncc3Cl)CC3(C(F)(F)F)CC3)c2C(F)(F)F)CC[C@@H]1C(=O)O [Example 830, (1S,2R,4S)-4-(4-((2-(3,5-dichloro-4-pyridinyl)-2-oxoethyl)((1-(trifluoromethyl)cyclopropyl)methyl)carbamoyl)-5-(trifluoromethyl)-1H-pyrazol-1-yl)-2-methylcyclohexanecarboxylic acid] |
| 9.33 nM | C[C@@H]1C[C@H](n2ncc(C(=O)N(CC(=O)c3c(Cl)cncc3Cl)CC(C)(C)C)c2C(F)(F)F)CC[C@H]1C(=O)O [Example 812, (1R,2R,4R)-4-(4-((2-(3,5-dichloro-4-pyridinyl)-2-oxoethyl)(2,2-dimethylpropyl)carbamoyl)-5-(trifluoromethyl)-1H-pyrazol-1-yl)-2-methylcyclohexanecarboxylic acid] |
| 17.8 nM | C[C@@H]1C[C@@H](n2ncc(C(=O)N3CC4(CC=CC4)C[C@@H]3Cc3c(Cl)cncc3Cl)c2C(F)(F)F)CC[C@@H]1C(=O)O [Example 809, (1S,2R,4S)-4-(4-(((3R)-3-((3,5-dichloro-4-pyridinyl)methyl)-2-azaspiro[4.4]non-7-en-2-yl)carbonyl)-5-(trifluoromethyl)-1H-pyrazol-1-yl)-2-methylcyclohexanecarboxylic acid] |
| 24.5 nM | C[C@H]1C[C@@H](n2ncc(C(=O)N(CC(=O)c3c(Cl)cncc3Cl)C[C@]34CC[C@H](CC3)O4)c2C(F)(F)F)CC[C@@H]1C(=O)O [Example 881, (1S,2S,4S)-4-(4-((2-(3,5-dichloro-4-pyridinyl)-2-oxoethyl)((1s,4s)-7-oxabicyclo[2.2.1]hept-1-ylmethyl)carbamoyl)-5-(trifluoromethyl)-1H-pyrazol-1-yl)-2-methylcyclohexanecarboxylic acid] |
| 32.4 nM | C[C@@H]1C[C@@H](n2ncc(C(=O)N(CCC(F)(F)F)CC(=O)c3c(Cl)cncc3Cl)c2C(F)(F)F)CC[C@@H]1C(=O)O [Example 766, (1S,2R,4S)-4-(4-((2-(3,5-dichloro-4-pyridinyl)-2-oxoethyl)(3,3,3-trifluoropropyl)carbamoyl)-5-(trifluoromethyl)-1H-pyrazol-1-yl)-2-methylcyclohexanecarboxylic acid] |
| 13.5 nM | C[C@H]1C[C@H](n2ncc(C(=O)N(CC(=O)c3c(Cl)cncc3Cl)CC(C)(C)C)c2C(F)(F)F)CC[C@H]1C(=O)O [Example 738] |

The remaining lines, values behind:

| Compound | IC50 |
| --- | --- |
| CC1(C)C[C@H]1CN(CCc1c(Cl)cncc1Cl)C(=O)c1cnn([C@H]2CC[C@H](C(=O)O)CC2)c1C(F)(F)F [Example 554, trans-4-(4-((2-(3,5-dichloro-4-pyridinyl)ethyl)(((1R)-2,2-dimethylcyclopropyl)methyl)carbamoyl)-5-(trifluoromethyl)-1H-pyrazol-1-yl)cyclohexanecarboxylic acid] | 7.08 nM |
| C[C@]1(C(=O)O)CC[C@H](n2ncc(C(=O)N(CC(=O)c3c(Cl)cccc3Cl)CC3(F)CC4(CC4)C3)c2C(F)(F)F)CC1 [Example 713, (1r,4r)-4-(4-((2-(2,6-dichlorophenyl)-2-oxoethyl)((5-fluorospiro[2.3]hexan-5-yl)methyl)carbamoyl)-5-(trifluoromethyl)-1H-pyrazol-1-yl)-1-methylcyclohexanecarboxylic acid] | 4.07 nM |
| CC1(CN(CCc2c(Cl)cncc2Cl)C(=O)c2cnn([C@H]3CC[C@](C)(C(=O)O)CC3)c2C(F)(F)F)CCCC1 [Example 591, trans-4-(4-((2-(3,5-dichloro-4-pyridinyl)ethyl)((1-methylcyclopentyl)methyl)carbamoyl)-5-(trifluoromethyl)-1H-pyrazol-1-yl)-1-methylcyclohexanecarboxylic acid] | 2.09 nM |
| CC1(C)CC(CN(CC(=O)c2c(Cl)cccc2Cl)C(=O)c2cnn([C@H]3CC[C@@](C)(C(=O)O)CC3)c2C(F)(F)F)C1 [Example 672, trans-4-(4-((2-(2,6-dichlorophenyl)-2-oxoethyl)((3,3-dimethylcyclobutyl)methyl)carbamoyl)-5-(trifluoromethyl)-1H-pyrazol-1-yl)-1-methylcyclohexanecarboxylic acid] | 2.04 nM |
| COc1cc(Cl)c(C(=O)CN(CC2CC(C)(C)C2)C(=O)c2cnn([C@H]3CC[C@](C)(C(=O)O)CC3)c2C(F)(F)F)c(Cl)c1 [Example 581] | 3.47 nM |
| C=CC[C@@H]1CCCC[C@@H]1n1ncc(C(=O)N(CC(=O)c2c(Cl)cncc2Cl)CC(C)(C)C)c1C(F)(F)F (stereo in doubt) [Example 586, N-(2-(3,5-dichloro-4-pyridinyl)-2-oxoethyl)-N-(2,2-dimethylpropyl)-1-((1S,2S)-2-(2-propen-1-yl)cyclohexyl)-5-(trifluoromethyl)-1H-pyrazole-4-carboxamide] | 331 nM |
| O=C(CN(C(=O)c1cnn([C@H]2CC[C@@H](C(=O)O)CC2)c1C(F)(F)F)C1CC2(CCC2)C1)c1c(Cl)cccc1Cl [Example 613, cis-4-(4-((2-(2,6-dichlorophenyl)-2-oxoethyl)(spiro[3.3]hept-2-yl)carbamoyl)-5-(trifluoromethyl)-1H-pyrazol-1-yl)cyclohexanecarboxylic acid] | 110 nM |
| C[C@]1(C(=O)O)CC[C@H](n2ncc(C(=O)N(CC(=O)c3c(Cl)cncc3Cl)CC3CCCCC3)c2C(F)(F)F)CC1 [Example 735] | 2.75 nM |
| C[C@]1(C(=O)O)CC[C@H](n2ncc(C(=O)N(CC(=O)c3c(Cl)cccc3Cl)CC3CC4(CC4)C3)c2C(F)(F)F)CC1 [Example 566, trans-4-(4-((2-(2,6-dichlorophenyl)-2-oxoethyl)(spiro[2.3]hex-5-ylmethyl)carbamoyl)-5-(trifluoromethyl)-1H-pyrazol-1-yl)-1-methylcyclohexanecarboxylic acid] | 3.09 nM |
| C[C@]1(CN(CC(=O)c2c(Cl)cccc2Cl)C(=O)c2cnn([C@H]3CC[C@](C)(C(=O)O)CC3)c2C(F)(F)F)CCCO1 [Example 728, trans-4-(4-((2-(2,6-dichlorophenyl)-2-oxoethyl)(((2R)-2-methyltetrahydro-2-furanyl)methyl)carbamoyl)-5-(trifluoromethyl)-1H-pyrazol-1-yl)-1-methylcyclohexanecarboxylic acid] | 4.79 nM |
| CC1(CN(CC(=O)c2c(Cl)cncc2Cl)C(=O)c2cnn([C@H]3CC[C@](C)(C(=O)O)CC3)c2C(F)(F)F)COC1 [Example 675, trans-4-(4-((2-(3,5-dichloro-4-pyridinyl)-2-oxoethyl)((3-methyl-3-oxetanyl)methyl)carbamoyl)-5-(trifluoromethyl)-1H-pyrazol-1-yl)-1-methylcyclohexanecarboxylic acid] | 234 nM |
